Assay: active ingredient delivery in PhEur phosphate buffer of pH 6.8 in a USP dissolution tester
Format: physicochemical
Settings: versus pellets with microcrystalline cellulose (Example 5), EUDRAGIT RS coating, no matrix

Row | Compound | effect of the modulating substance in the core on active ingredient delivery
1 | [Cl-].[Na+] [sodium chloride] | reducing effect
2 | O=C(O)CC(O)(CC(=O)O)C(=O)O [citric acid] | accelerating effect
3 | O=C([O-])CCC(=O)[O-].[Na+].[Na+] [sodium succinate] | accelerating effect
4 | CC(=O)[O-].[Na+] [sodium acetate] | accelerating effect

From patent US20070042045A1, “Multilayer dosage form comprising a matrix that influences release of a modulatory substance” (ROEHM GBMH & CO. KG, priority 2003, published 2007)
